# What was measured:
# [1] = CREMOPHOR EL:ethanol formulations, dissolution and stability after dilution in saline; assay type: physicochemical; conditions: for Stability following dilution in saline, Dilution 1/5 / Stability following dilution in saline, Dilution 1/10 / Stability following dilution in saline, Dilution 1/20: monitored 24 hours
# Method: Once it was established that a cosolvent formulation made of CREMOPHOR EL® (polyoxyl 35 castor oil) and ethanol is appropriate to dissolve the drug, a matrix of such formulations was prepared at various concentrations (from 30 to 70% w/w of each ingredient) and with increasing amounts of dexanabinol of high enantiomeric purity (20, 50 and 100 mg/ml). The exact composition of these formulations is described in the left hand side of Table 5. The drug cosolvent concentrates were diluted at various ratios in saline and the stability of the drug in the resulting solutions was monitored for 24 hours.
# [2] = single dose toxicity and pharmacokinetics, monkey; assay type: in vivo, Cynomolgus monkeys; conditions: for AUC(0-inf) / Cmax: plasma, single i.v. 50 mg/kg (NOAEL); for AUC∞ Ratio to Phase I / Cmax Ratio to Phase I / Cmax Ratio to Phase II: single i.v. 50 mg/kg; for AUC∞ Ratio to Phase I / Cmax Ratio to Phase I: vs human 150 mg Phase I; for Cmax Ratio to Phase II: vs human 150 mg Phase II
# Method: (§1) The pharmacokinetics of dexanabinol of high enantiomeric purity formulated in CREMOPHOR EL®:ethanol as described in Example 4 were investigated in rats, rabbits, and monkeys following intravenous administration of single doses, and 14 and 28 days of repeated dosing. Human pharmacokinetics was studied during Phase I and Phase II clinical studies. Dexanabinol used in the pharmacokinetic studies was formulated as drug concentrates of 50 and 100 mg/ml and diluted with sterile 0.9% NaCl solution prior to intravenous (i.v.) administration to the desired final doses. Determination of dexanabinol concentrations in plasma and brain extracts was carried out using a validated Gas Chromatography-Mass Spectra (GC-MS) assay following solid phase extraction of the drug and derivatization. The limit of quantitation of the assay is 0.1 ng/ml.
# (§2) Pharmacokinetic parameters were estimated by a non-compartmental method using WinNonlin Professional version 3.2 (Pharsight Corp., Mountain View, Calif.). The maximum plasma concentration (Cmax), when the drug is administered by infusion, is the concentration at the end of infusion. The Cmax following intravenous bolus administration is the value estimated by the software to be the concentration at t=0. The terminal slope (X) was estimated by linear regression through the last time points and used to calculate the terminal half-life (t1/2) from the following equation: t1/2=0.693/λ The area under the curve from time of dosing through the last time point (AUCz) was calculated by the linear trapezoid method. The AUC extrapolated to infinity (AUC∞) was calculated from the following equation: AUC∞=AUCz+Cz/λ where Cz is the concentration at the last time point predicted by the linear regression. AUC∞ was normalized for dose (mg/kg) and presented as AUC∞/Dose. Mean residence time (MRT), when the drug is administered by infusion is described by the following equation: MRT=(AUMC/AUC)−(TI)/2 Mean residence time after i.v. bolus administration is described by the following equation: MRT=(AUMC/AUC) where AUMC is the area under the first moment curve and TI is the length of infusion. Plasma clearance (CL), and the apparent volume of distribution at steady state (Vss) were calculated from the following equations: CL=Dose/AUC∞ Vss=MRT×CL
# Table 6 summarizes the maximum plasma concentration (Cmax) and the area under the plasma concentration versus time curve (AUC) observed at the NOAEL doses cited above, as well as the animal to human exposure ratios (ER) for dexanabinol of high enantiomeric purity, expressed as the ratio of the pharmacokinetic (PK) parameter to that observed for a 150 mg dose in a Phase I study in human volunteers and in Phase II study in patients suffering from severe traumatic brain injury (TBI).
# [3] = 14-day multiple dose pharmacokinetic/toxicity study, rat; assay type: in vivo, rats; conditions: for AUC∞ Ratio to Phase I / Cmax Ratio to Phase I / AUC∞ Ratio to Phase II / Cmax Ratio to Phase II: 15 mg/kg Day 14; for AUC∞ Ratio to Phase I / Cmax Ratio to Phase I: vs human 150 mg Phase I; for AUC∞ Ratio to Phase II / Cmax Ratio to Phase II: vs human 150 mg Phase II
# Method: as §1, §2
# In 14-day multiple dose pharmacokinetic studies, the NOAEL was 15 mg/kg/day in rats and 25 mg/kg/day in rabbits. In a 28-day study in monkeys the NOAEL was 25 mg/kg/day. Cmax and AUC observed following the last dose at the NOAEL in the multiple dose toxicity studies and the ratios of these values to those observed in the Phase I and II studies for the 150 mg dose are shown in Table 7.
# [4] = 20 mg/ml in 30% CREMOPHOR EL/70% ethanol
# [5] = 20 mg/ml in 50% CREMOPHOR EL/50% ethanol
# [6] = 20 mg/ml in 70% CREMOPHOR EL/30% ethanol
# [7] = 50 mg/ml in 30% CREMOPHOR EL/70% ethanol
# [8] = 50 mg/ml in 50% CREMOPHOR EL/50% ethanol
# [9] = 50 mg/ml in 70% CREMOPHOR EL/30% ethanol
# [10] = 100 mg/ml in 30% CREMOPHOR EL/70% ethanol
# [11] = 100 mg/ml in 50% CREMOPHOR EL/50% ethanol
# [12] = 100 mg/ml in 70% CREMOPHOR EL/30% ethanol
# [13] = both sexes, cynomolgus monkey, iv, monkey male & female
# [14] = cynomolgus monkey, iv, monkey female
# [15] = cynomolgus monkey, iv, monkey male
# [16] = plasma, iv, rat female, 15 mg/kg i.v. daily, final dose Day 14 (NOAEL)
# [17] = plasma, iv, rat male, 15 mg/kg i.v. daily, final dose Day 14 (NOAEL)
compound,measurement,setting,value
"CCCCCCC(C)(C)c1cc(O)c2c(c1)OC(C)(C)[C@H]1CC=C(CO)C[C@H]21 [dexanabinol, 1,1-dimethylheptyl-(3S,4S)-7-hydroxy-Δ^6-tetrahydrocannabinol]",amount of dexanabinol dissolved by CREMOPHOR EL:ethanol cosolvent formulations,[1],at least 100 mg/ml
same,"Stability following dilution in saline, Dilution 1/5",[1]; [4],Stable
same,"Stability following dilution in saline, Dilution 1/10",[1]; [4],Stable
same,"Stability following dilution in saline, Dilution 1/20",[1]; [4],Stable
same,"Stability following dilution in saline, Dilution 1/5",[1]; [5],Stable
same,"Stability following dilution in saline, Dilution 1/10",[1]; [5],Stable
same,"Stability following dilution in saline, Dilution 1/20",[1]; [5],Stable
same,"Stability following dilution in saline, Dilution 1/5",[1]; [6],Stable
same,"Stability following dilution in saline, Dilution 1/10",[1]; [6],Stable
same,"Stability following dilution in saline, Dilution 1/20",[1]; [6],Stable
same,"Stability following dilution in saline, Dilution 1/5: crystals appeared at",[1]; [7],appeared at 2 hours
same,"Stability following dilution in saline, Dilution 1/10: crystals appeared at",[1]; [7],2 h
same,"Stability following dilution in saline, Dilution 1/20: crystals appeared at",[1]; [7],2.5 h
same,"Stability following dilution in saline, Dilution 1/5: stable at least",[1]; [8],least 7 hours
same,"Stability following dilution in saline, Dilution 1/10: stable at least",[1]; [8],least 4 hours
same,"Stability following dilution in saline, Dilution 1/20: stable at least",[1]; [8],≥ 7 h
same,"Stability following dilution in saline, Dilution 1/5: stable at least",[1]; [9],least 7 hours
same,"Stability following dilution in saline, Dilution 1/10: stable at least",[1]; [9],least 7 hours
same,"Stability following dilution in saline, Dilution 1/20: stable at least",[1]; [9],≥ 7 h
same,stability after dilution with saline,"[1]; 50 mg/ml in 70:30 CREMOPHOR EL:ethanol, all ratios from 1:5 to 1:20",stable
same,"Stability following dilution in saline, Dilution 1/5: crystals appeared at",[1]; [10],45 min
same,"Stability following dilution in saline, Dilution 1/10: crystals appeared at",[1]; [10],0.917 h
same,"Stability following dilution in saline, Dilution 1/20: crystals appeared at",[1]; [10],1.5 h
same,"Stability following dilution in saline, Dilution 1/5: crystals appeared at",[1]; [11],90 min
same,"Stability following dilution in saline, Dilution 1/10: crystals appeared at",[1]; [11],1.5 h
same,"Stability following dilution in saline, Dilution 1/20: crystals appeared at",[1]; [11],1.5 h
same,"Stability following dilution in saline, Dilution 1/5: crystals appeared at",[1]; [12],appeared at 2 hours
same,"Stability following dilution in saline, Dilution 1/10: crystals appeared at",[1]; [12],2 h
same,"Stability following dilution in saline, Dilution 1/20: crystals appeared at",[1]; [12],3.5 h
same,AUC(0-inf),[2]; [13],127 µg·h/mL
same,Cmax,[2]; [13],171 µg/mL
same,NOAEL,"[2]; cynomolgus monkey, in vivo, iv, single dose i.v., read-out: no observed adverse effect level (NOAEL)",50 mg/kg
same,AUC(0-inf),[2]; [14],136 µg·h/mL
same,Cmax,[2]; [14],175 µg/mL
same,AUC(0-inf),[2]; [15],117 µg·h/mL
same,Cmax,[2]; [15],167 µg/mL
same,AUC∞ Ratio to Phase I,[2]; monkey female,42.4
same,Cmax Ratio to Phase I,[2]; monkey female,35.0
same,Cmax Ratio to Phase II,[2]; monkey female,89.0
same,AUC∞ Ratio to Phase I,[2]; monkey male & female,39.5
same,Cmax Ratio to Phase I,[2]; monkey male & female,34.2
same,Cmax Ratio to Phase II,[2]; monkey male & female,86.9
same,AUC∞ Ratio to Phase I,[2]; monkey male,36.6
same,Cmax Ratio to Phase I,[2]; monkey male,33.4
same,Cmax Ratio to Phase II,[2]; monkey male,84.9
same,AUC(0-inf),[3]; [16],58.6 µg·h/mL
same,Cmax at 14 days,[3]; [16],17.4 µg/mL
same,AUC(0-inf),[3]; [17],32.7 µg·h/mL
same,Cmax,[3]; [17],30.2 µg/mL
same,AUC∞ Ratio to Phase I,[3]; rat female,18.3
same,Cmax Ratio to Phase I,[3]; rat female,3.5
same,AUC∞ Ratio to Phase II,[3]; rat female,39.5
same,Cmax Ratio to Phase II,[3]; rat female,8.8
same,AUC∞ Ratio to Phase I,[3]; rat male,10.2
same,Cmax Ratio to Phase I,[3]; rat male,6.0
same,AUC∞ Ratio to Phase II,[3]; rat male,22.1
same,Cmax Ratio to Phase II,[3]; rat male,15.4
same,NOAEL at 14 days,"[3]; rat, in vivo, iv, 14-day multiple dose i.v.",15 mg/kg/day
